This note sets out measurements from PMC13415033, “Pickering Emulsion Stabilized by Chitosan-Modified Saigae Tataricae Cornu Particles for Improving the Oxidative Stability and In Vivo Pharmacokinetics of Acorus tatarinowii Schott Volatile Oil” (Pharmaceuticals, 2026).

This data set can be described thus: GC-MS analysis of volatile components after light exposure. In kind it is physicochemical. Conditions: after 5 d of light exposure. The protocol: Untreated ATVO, the physical mixture (10 mL ATVO, 10 mL distilled water, and 0.3 g MSTC mixed uniformly with a glass rod), and the MSTC-stabilized PE were each placed into flat weighing bottles (40 × 25 mm). The samples were stored in a light-stability chamber with a light intensity of 4500 ± 500 lx and a controlled temperature of 25 ± 0.5 °C. Aliquots were collected after 1, 3, and 5 days of light exposure. The physical mixture and PE groups were centrifuged (10,000 rpm, 10 min) to achieve phase separation prior to analysis. All assays were performed in triplicate, and the obtained samples were maintained at 4 °C until analyzed.Volatile oil retention rate (%) = Vt/V0 × 100%(2) The volatile components of ATVO were determined by gas chromatography-mass spectrometry (GC-MS) according to a previously reported method. Samples from each treatment group were prepared before analysis. Briefly, 100 μL of each volatile oil sample was transferred into a 10 mL volumetric flask. Then, 100 μL of n-docosane internal standard solution (10 mg·mL^−1) was added. The mixture was diluted to volume with n-hexane. […] It was then vortex-mixed and filtered through a 0.22 μm organic membrane filter. The filtrate was used for GC-MS analysis. […] Relative quantification was performed using n-docosane as the internal standard. […]

Molecules are shown by their SMILES.

Take `C=C/C(C)=C/CC=C(C)C` [003779-61-1, (E)-3,7-dimethylocta-1,3,6-triene]: the “relative content of the component” value is, setting by setting: (PE group) “well retained”; (free ATVO (O) group implied) “decreased to zero”.
